Reference: ChEMBL document CHEMBL4507291 (2021)

What was measured:
[1] = molecular target: T1, Activin receptor type-1 (Homo sapiens) (UniProt Q04771)
T1 sequence (whole entry): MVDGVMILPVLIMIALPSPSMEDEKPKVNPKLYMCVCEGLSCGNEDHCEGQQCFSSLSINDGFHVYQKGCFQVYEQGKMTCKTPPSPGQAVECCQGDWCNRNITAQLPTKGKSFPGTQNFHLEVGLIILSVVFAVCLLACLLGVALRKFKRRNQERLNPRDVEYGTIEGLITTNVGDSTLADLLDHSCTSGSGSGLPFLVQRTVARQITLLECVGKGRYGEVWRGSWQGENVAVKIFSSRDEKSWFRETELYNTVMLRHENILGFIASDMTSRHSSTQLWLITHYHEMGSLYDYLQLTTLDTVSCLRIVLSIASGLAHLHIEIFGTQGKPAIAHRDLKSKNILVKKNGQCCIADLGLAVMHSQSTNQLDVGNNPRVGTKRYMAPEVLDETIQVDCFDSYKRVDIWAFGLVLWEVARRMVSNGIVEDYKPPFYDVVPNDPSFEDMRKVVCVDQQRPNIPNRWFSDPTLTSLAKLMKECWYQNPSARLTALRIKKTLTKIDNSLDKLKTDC

[2] = molecular target: Ankyrin repeat and protein kinase domain-containing protein 1 (Homo sapiens) (UniProt Q8NFD2)
[3] = molecular target: Dual specificity protein kinase CLK3 (Homo sapiens) (UniProt P49761)
[4] = molecular target: Casein kinase I isoform alpha-like (Homo sapiens) (UniProt Q8N752)
[5] = molecular target: Casein kinase I isoform gamma-3 (Homo sapiens) (UniProt Q9Y6M4)
[6] = test system: eIF-2-alpha kinase GCN2 (Homo sapiens), Q9P2K8 [S808G]
[7] = molecular target: Mast/stem cell growth factor receptor Kit (Homo sapiens) (UniProt P10721)
[8] = test system: Mast/stem cell growth factor receptor Kit (Homo sapiens), P10721 [A829P]
[9] = molecular target: Hepatocyte growth factor receptor (Homo sapiens) (UniProt P08581)
[10] = test system: Hepatocyte growth factor receptor (Homo sapiens), P08581 [M1250T]
[11] = molecular target: Myosin light chain kinase 2, skeletal/cardiac muscle (Homo sapiens) (UniProt Q9H1R3)
[12] = molecular target: T2, Serine/threonine-protein kinase Nek2 (Homo sapiens) (UniProt P51955)
T2 sequence (whole entry): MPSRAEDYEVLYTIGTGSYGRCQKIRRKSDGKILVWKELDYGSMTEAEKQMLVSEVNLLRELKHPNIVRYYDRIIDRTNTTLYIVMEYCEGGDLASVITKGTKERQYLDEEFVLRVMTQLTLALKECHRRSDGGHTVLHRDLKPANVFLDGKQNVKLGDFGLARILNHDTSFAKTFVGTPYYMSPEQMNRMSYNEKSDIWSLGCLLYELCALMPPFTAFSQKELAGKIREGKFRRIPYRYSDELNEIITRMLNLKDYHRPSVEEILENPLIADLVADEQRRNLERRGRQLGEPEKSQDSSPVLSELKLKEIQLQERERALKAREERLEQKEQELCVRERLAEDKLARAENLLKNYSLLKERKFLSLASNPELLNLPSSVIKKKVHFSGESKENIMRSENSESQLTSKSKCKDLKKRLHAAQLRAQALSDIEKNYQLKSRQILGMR

[13] = molecular target: Serine/threonine-protein kinase PAK 2 (Homo sapiens) (UniProt Q13177)
[14] = molecular target: 3-phosphoinositide-dependent protein kinase 1 (Homo sapiens) (UniProt O15530)
[15] = molecular target: Serine/threonine-protein kinase PknB (Mycobacterium tuberculosis) (UniProt P9WI81)
[16] = molecular target: Protein kinase C theta type (Homo sapiens) (UniProt Q04759)
[17] = molecular target: Ribosomal protein S6 kinase alpha-5 (Homo sapiens) (UniProt O75582)
[18] = molecular target: Ribosomal protein S6 kinase alpha-3 (Homo sapiens) (UniProt P51812)
[19] = molecular target: Ribosomal protein S6 kinase alpha-2 (Homo sapiens) (UniProt Q15349)
[20] = molecular target: Ribosomal protein S6 kinase alpha-6 (Homo sapiens) (UniProt Q9UK32)
[21] = molecular target: Uncharacterized serine/threonine-protein kinase SBK3 (Homo sapiens) (UniProt P0C264)
[22] = molecular target: STE20/SPS1-related proline-alanine-rich protein kinase (Homo sapiens) (UniProt Q9UEW8)
[23] = molecular target: T3, Tyrosine-protein kinase Tec (Homo sapiens) (UniProt P42680)
T3 sequence (whole entry): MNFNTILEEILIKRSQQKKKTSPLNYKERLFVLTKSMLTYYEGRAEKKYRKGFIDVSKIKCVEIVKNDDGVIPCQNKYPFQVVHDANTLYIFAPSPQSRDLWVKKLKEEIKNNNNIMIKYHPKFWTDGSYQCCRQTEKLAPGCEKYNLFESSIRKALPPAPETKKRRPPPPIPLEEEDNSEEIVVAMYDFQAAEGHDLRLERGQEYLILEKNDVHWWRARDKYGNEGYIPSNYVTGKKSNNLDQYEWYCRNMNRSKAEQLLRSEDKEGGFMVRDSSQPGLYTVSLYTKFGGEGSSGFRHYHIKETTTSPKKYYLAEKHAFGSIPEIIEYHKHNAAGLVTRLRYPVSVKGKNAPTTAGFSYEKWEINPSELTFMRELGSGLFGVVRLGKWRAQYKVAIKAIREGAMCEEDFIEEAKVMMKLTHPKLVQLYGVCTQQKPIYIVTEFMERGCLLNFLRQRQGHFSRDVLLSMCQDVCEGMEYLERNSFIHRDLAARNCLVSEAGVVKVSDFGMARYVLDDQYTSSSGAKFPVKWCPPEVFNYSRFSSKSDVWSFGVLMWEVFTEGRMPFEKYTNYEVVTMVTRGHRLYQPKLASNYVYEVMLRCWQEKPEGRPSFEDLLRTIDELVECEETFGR

Rattus norvegicus = organism: Rattus norvegicus; settings: Compound concentration 10.0 uM
[24] = Compound concentration 100.0 nM
[25] = Compound concentration 1000.0 nM

Chain of Ribosomal protein S6 kinase alpha-5 (Homo sapiens) (O75582 whole entry, looked up): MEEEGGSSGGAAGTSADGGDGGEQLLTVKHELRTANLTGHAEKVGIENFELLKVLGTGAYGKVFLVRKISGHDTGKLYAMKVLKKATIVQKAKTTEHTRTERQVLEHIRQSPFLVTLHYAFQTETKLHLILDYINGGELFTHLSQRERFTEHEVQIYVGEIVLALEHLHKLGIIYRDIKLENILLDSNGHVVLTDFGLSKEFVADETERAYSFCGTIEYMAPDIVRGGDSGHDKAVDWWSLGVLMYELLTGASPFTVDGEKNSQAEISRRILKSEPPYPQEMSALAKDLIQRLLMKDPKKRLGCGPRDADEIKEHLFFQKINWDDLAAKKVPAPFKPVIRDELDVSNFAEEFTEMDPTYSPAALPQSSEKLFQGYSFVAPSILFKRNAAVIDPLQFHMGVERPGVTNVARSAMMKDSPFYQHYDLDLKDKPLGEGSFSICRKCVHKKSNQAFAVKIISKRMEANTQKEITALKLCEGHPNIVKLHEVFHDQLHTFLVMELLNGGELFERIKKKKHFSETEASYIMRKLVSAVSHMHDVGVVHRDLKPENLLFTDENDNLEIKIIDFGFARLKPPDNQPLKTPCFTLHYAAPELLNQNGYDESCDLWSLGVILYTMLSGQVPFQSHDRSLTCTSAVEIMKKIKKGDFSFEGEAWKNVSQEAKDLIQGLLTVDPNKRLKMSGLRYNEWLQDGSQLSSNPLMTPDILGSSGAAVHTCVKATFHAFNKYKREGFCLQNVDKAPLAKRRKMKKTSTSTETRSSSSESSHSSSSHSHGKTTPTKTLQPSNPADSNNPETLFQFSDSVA
Chain of Serine/threonine-protein kinase PknB (Mycobacterium tuberculosis) (P9WI81 whole entry): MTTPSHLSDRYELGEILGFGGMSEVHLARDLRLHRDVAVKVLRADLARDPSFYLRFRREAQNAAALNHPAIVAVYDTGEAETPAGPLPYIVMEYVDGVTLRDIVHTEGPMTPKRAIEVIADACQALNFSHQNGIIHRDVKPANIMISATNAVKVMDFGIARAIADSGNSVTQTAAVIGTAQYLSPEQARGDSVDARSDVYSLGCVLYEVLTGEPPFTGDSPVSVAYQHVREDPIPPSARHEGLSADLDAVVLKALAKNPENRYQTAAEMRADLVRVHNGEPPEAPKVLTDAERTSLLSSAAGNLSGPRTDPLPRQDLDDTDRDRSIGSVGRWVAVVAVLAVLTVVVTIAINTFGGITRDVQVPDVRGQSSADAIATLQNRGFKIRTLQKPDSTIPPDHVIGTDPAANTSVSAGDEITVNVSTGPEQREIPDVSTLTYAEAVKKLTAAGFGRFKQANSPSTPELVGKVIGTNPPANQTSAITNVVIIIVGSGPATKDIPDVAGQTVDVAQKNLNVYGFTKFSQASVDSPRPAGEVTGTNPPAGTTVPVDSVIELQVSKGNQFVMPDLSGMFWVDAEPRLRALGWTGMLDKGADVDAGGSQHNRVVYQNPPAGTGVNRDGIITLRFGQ
Chain of Mast/stem cell growth factor receptor Kit (Homo sapiens) (P10721 whole entry): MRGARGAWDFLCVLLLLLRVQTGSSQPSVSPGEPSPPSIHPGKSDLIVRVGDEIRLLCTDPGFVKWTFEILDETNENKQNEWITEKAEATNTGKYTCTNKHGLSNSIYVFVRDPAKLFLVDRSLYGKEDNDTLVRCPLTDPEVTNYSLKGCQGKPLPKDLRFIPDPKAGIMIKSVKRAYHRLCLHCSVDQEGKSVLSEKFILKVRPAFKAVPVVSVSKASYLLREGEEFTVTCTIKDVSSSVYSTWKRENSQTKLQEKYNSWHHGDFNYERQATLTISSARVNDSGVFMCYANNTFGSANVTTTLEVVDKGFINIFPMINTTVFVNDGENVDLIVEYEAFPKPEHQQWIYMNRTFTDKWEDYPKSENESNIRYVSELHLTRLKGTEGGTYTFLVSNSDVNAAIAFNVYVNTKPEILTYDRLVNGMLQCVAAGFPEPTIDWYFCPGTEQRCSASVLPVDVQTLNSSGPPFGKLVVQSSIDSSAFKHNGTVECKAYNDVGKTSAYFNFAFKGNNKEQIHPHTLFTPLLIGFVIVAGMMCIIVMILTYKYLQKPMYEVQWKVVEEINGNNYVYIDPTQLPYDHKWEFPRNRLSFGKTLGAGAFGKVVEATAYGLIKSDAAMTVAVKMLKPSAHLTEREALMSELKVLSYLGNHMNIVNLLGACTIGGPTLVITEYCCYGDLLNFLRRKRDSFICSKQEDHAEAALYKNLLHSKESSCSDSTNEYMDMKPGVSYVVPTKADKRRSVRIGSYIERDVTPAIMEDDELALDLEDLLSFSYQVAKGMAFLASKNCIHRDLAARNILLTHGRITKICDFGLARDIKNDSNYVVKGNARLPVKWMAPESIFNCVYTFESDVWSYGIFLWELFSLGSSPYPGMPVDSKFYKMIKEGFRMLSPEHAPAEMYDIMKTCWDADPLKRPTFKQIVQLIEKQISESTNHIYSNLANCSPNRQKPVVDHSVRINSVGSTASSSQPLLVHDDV
Chain of Ankyrin repeat and protein kinase domain-containing protein 1 (Homo sapiens) (Q8NFD2 whole entry, the tested form may be a part): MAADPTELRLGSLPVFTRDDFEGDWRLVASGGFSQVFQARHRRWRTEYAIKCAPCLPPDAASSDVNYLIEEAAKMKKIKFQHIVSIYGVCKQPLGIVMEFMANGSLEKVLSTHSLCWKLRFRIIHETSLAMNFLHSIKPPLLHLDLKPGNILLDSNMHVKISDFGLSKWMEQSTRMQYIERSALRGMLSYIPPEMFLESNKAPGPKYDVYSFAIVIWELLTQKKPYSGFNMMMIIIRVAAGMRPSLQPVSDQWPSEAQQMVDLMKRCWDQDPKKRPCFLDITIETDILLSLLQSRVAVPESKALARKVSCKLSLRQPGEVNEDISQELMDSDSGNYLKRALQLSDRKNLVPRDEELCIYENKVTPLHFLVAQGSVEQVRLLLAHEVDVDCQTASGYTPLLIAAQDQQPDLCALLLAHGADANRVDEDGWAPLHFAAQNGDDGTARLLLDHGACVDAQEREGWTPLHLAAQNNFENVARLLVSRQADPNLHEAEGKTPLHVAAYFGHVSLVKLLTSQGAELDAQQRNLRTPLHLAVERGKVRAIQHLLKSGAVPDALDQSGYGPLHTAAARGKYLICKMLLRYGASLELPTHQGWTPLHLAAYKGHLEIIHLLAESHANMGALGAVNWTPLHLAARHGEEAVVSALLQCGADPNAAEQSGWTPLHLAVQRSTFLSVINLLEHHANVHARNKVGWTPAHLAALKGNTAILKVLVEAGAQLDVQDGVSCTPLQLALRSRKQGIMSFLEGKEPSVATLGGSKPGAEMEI
Chain of Casein kinase I isoform alpha-like (Homo sapiens) (Q8N752 whole entry, canonical isoform): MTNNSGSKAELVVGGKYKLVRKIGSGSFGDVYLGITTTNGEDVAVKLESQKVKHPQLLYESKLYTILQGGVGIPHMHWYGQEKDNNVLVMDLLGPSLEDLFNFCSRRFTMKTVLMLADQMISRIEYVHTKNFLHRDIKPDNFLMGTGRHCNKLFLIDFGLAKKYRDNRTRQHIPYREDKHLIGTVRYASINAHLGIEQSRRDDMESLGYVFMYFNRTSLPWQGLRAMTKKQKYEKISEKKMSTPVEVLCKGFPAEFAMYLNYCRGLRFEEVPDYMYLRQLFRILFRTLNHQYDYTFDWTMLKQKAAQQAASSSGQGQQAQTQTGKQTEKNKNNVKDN
Chain of Casein kinase I isoform gamma-3 (Homo sapiens) (Q9Y6M4 whole entry, looked up, canonical isoform): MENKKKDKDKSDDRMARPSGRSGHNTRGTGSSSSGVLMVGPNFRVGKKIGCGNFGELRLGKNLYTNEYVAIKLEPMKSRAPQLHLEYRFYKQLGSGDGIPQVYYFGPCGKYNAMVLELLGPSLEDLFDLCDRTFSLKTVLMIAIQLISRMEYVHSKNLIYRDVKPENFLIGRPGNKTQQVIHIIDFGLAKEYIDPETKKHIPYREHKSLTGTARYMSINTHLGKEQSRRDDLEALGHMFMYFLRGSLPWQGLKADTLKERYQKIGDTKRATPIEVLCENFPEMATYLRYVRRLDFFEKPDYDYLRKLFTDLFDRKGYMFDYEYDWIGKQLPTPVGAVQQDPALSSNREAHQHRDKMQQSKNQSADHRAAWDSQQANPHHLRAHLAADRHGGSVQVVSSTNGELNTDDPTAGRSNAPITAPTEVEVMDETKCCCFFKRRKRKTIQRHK
Chain of Protein kinase C theta type (Homo sapiens) (Q04759 whole entry, looked up): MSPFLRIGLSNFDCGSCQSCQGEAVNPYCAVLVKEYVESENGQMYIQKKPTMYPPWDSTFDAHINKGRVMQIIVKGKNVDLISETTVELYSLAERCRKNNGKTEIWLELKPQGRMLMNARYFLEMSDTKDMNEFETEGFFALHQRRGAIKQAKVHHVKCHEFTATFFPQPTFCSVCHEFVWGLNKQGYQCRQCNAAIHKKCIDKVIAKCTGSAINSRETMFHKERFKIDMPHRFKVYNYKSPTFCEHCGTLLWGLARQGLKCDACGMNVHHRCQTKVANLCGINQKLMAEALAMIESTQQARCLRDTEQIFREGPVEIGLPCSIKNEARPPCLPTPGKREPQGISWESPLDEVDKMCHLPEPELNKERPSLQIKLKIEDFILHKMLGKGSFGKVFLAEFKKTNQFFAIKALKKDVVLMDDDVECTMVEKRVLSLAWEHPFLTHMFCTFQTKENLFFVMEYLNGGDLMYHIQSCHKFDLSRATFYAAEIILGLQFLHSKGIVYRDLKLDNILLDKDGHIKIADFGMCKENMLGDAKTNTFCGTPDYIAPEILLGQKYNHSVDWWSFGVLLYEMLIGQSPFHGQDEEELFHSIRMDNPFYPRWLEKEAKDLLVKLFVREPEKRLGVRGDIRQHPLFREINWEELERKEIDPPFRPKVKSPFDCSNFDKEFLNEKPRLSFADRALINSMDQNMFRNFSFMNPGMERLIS
Chain of Uncharacterized serine/threonine-protein kinase SBK3 (Homo sapiens) (P0C264 whole entry): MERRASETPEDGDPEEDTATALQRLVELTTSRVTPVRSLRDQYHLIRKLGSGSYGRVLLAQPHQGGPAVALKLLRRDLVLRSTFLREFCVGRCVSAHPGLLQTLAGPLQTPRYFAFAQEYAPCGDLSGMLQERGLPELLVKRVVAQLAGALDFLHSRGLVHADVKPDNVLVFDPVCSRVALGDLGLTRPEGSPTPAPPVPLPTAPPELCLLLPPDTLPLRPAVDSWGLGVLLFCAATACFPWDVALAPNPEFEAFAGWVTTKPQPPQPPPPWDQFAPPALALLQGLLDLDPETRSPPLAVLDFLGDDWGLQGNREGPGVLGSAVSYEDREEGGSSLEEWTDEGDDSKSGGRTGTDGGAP

C[C@@H]1CN(c2cc(-c3n[nH]c4ccc(OC5(C)CC5)cc34)ncn2)C[C@H](C)O1 [MLi-2]
inactive: residual activity [1, 24] 90% | residual activity [2, 24] 79% | residual activity [3, 24] 94% | residual activity [4, 24] 100% | residual activity [5, 24] 95% | residual activity [6, 24] 81% | residual activity [7, 24] 82% | residual activity [8, 24] 62% | residual activity [9, 24] 100% | residual activity [10, 24] 79% | residual activity [11, 24] 91% | residual activity [12, 24] 86% | residual activity [13, 24] 95% | residual activity [14, 24] 78% | residual activity [15, 24] 95% | residual activity [16, 24] 74% | residual activity [17, 24] 97% | residual activity [18, 24] 73% | residual activity [19, 24] 92% | residual activity [20, 24] 85% | residual activity [21, 24] 100% | residual activity [22, 24] 85% | residual activity [23, 24] 74% | inhibition (Rattus norvegicus) 5.96%

C[C@@H]1CN(c2cc(-c3nn(C)c4ccc(OC5(C)CC5)cc34)ncn2)C[C@H](C)O1 [MLi-2-NC]
inactive: residual activity [1, 25] 96% | residual activity [2, 25] 67% | residual activity [3, 25] 98% | residual activity [4, 25] 78% | residual activity [5, 25] 100% | residual activity [6, 25] 100% | residual activity [7, 25] 100% | residual activity [8, 25] 60% | residual activity [9, 25] 100% | residual activity [10, 25] 93% | residual activity [11, 25] 87% | residual activity [12, 25] 100% | residual activity [13, 25] 90% | residual activity [14, 25] 100% | residual activity [15, 25] 100% | residual activity [16, 25] 91% | residual activity [17, 25] 100% | residual activity [18, 25] 82% | residual activity [19, 25] 88% | residual activity [20, 25] 79% | residual activity [21, 25] 100% | residual activity [22, 25] 70% | residual activity [23, 25] 100% | inhibition (Rattus norvegicus) 46.1%
